In ChEMBL document CHEMBL1147260, “Heliotropamide, a novel oxopyrrolidine-3-carboxamide from Heliotropium ovalifolium” (J Nat Prod, 2003):
The source made the active and inactive calls.

Tests used:
Candida albicans = test: Antifungal activity against Candida albicans; assay type: functional, organism-based
[1] = Antioxidant activity assessed as DPPH scavenging activity; assay type: functional
Bacillus subtilis = test: Antibacterial activity against Bacillus subtilis; assay type: functional, organism-based
[2] = molecular target: Acetylcholinesterase (Homo sapiens) (UniProt P22303); test: Inhibition of acetylcholinesterase
Cladosporium cucumerinum = test: Antifungal activity against Cladosporium cucumerinum; assay type: functional, organism-based

Measured: Activity

Sequence of Acetylcholinesterase (Homo sapiens) (P22303 whole entry): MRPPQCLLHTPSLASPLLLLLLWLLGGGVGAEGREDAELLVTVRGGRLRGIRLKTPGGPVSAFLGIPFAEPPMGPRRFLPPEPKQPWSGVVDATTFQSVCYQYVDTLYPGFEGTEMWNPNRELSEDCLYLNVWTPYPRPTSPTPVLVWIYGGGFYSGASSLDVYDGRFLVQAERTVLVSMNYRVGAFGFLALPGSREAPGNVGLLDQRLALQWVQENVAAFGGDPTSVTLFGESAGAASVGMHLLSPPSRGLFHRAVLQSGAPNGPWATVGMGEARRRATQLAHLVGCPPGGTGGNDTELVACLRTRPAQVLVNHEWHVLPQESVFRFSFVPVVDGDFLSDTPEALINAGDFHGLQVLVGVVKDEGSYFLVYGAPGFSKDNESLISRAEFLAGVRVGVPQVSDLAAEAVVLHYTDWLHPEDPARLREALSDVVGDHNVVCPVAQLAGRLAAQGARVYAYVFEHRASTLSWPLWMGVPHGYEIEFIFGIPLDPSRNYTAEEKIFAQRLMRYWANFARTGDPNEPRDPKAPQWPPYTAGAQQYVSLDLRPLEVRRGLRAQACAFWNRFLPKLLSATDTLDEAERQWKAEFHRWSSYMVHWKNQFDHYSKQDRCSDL

COc1cc(/C=C2\C(=O)N(CCc3ccc(OC(C)=O)cc3)[C@H](c3ccc(OC(C)=O)c(OC)c3)[C@H]2C(=O)NCCc2ccc(OC(C)=O)cc2)ccc1OC(C)=O
inactive: all assays above

COc1cc(/C=C2\C(=O)N(CCc3ccc(O)cc3)[C@H](c3ccc(O)c(OC)c3)[C@H]2C(=O)NCCc2ccc(O)cc2)ccc1O
inactive: all assays above
